Data reported in US10174067B2, “Type of cytidine derivative and application thereof” (priority 2014, dated 2019).
Marks after values point to notes of the source that are not given here.

Columns and labels:
[1] = system: ICR mice; assay: in vivo; details: female ICR mice; single-dose ip
Outline: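 MTD, the dose without mortality, body-weight loss over 10% from Day 0 or marked adverse signs, was found by stepwise up/down single intraperitoneal dosing of female SPF ICR mice. Vehicle: ethanol:Cremophor EL:saline 5:5:90. Animals weighed daily and clinically checked twice daily for up to 14 days.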

[2] = system: HCT-116 colon cancer xenografts; assay: Tumor growth inhibition of HCT-116 colon cancer xenografts in tumor-bearing nude mice (tumor volume, TGI %, RTV, T/C %); format: in vivo, Balb/c Nude mice; details: for Day 0 (RTV) / Tumor volume, Day 0 / Day 4 (RTV) / Tumor volume, Day 4 / Day 6 (RTV) / Tumor volume, Day 6 / Day 8 (RTV) / Tumor volume, Day 8 / Day 11 (RTV) / Tumor volume, Day 11 / Day 13 (RTV) / Tumor volume, Day 13 / Day 15 (RTV) / Tumor volume, Day 15 / Day 18 (RTV) / Tumor volume, Day 18 / Day 20 (RTV) / Tumor volume, Day 20 / Day 22 (RTV) / Tumor volume, Day 22: Mean±SEM; for T/C % (relative tumor proliferation rate): single-dose intraperitoneal, dosage mg/kg: G3, G4, G8 350, G5, G9 325, G6 300, G7 250;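 for T/C % (relative tumor proliferation rate): control C is the vehicle-treated model control group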
Outline: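 Tumors in HCT-116-inoculated nude mice were sized three times weekly by diameter, with volume V=3/4π(D/2)^3. Significance set at P<0.05.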

[3] = for Weight change rate, Day 0 / Weight of mice, Day 0 / Weight change rate, Day 4 / Weight of mice, Day 4 / Weight change rate, Day 6 / Weight of mice, Day 6 / Weight change rate, Day 8 / Weight of mice, Day 8 / Weight change rate, Day 11 / Weight of mice, Day 11 / Weight change rate, Day 13 / Weight of mice, Day 13 / Weight change rate, Day 15 / Weight of mice, Day 15 / Weight change rate, Day 18 / Weight of mice, Day 18 / Weight change rate, Day 20 / Weight of mice, Day 20 / Weight change rate, Day 22 / Weight of mice, Day 22: G3-G9 groups, single IP dose, Mean±SEM; for Day 22 Mortality: single IP dose (mg/kg)
Outline: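 Test compounds formulated in ethanol:Cremophor EL:saline (5:5:90), vehicle alone as control, in HCT-116 subcutaneous xenografts in female Balb/c nudes (6/group, start 60–150 mm^3). Weight measured three times weekly, tumour weight at end; unpaired t-test on Mean±SEM data.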

[4] = Day 0, G3-G9 groups, single IP dose
[5] = Day 4, G3-G9 groups, single IP dose
[6] = Day 6, G3-G9 groups, single IP dose
[7] = Day 8, G3-G9 groups, single IP dose
[8] = Day 11, G3-G9 groups, single IP dose
[9] = Day 13, G3-G9 groups, single IP dose
[10] = Day 15, G3-G9 groups, single IP dose
[11] = Day 18, G3-G9 groups, single IP dose
[12] = Day 20, G3-G9 groups, single IP dose
[13] = Day 22, G3-G9 groups, single IP dose

## CC(C)(C)OC(=O)Nc1ccn([C@@H]2O[C@H](CO)[C@@H](O)C2(F)F)c(=O)n1 [Compound G3, 4N-(t-butyloxycarbonyl)-2′deoxy-2′,2′-difluorocytidine]
[1]
  dose that could be tolerated (maximum tolerated dose, MTD): 350 mg/kg
[2]; [4]
  Day 0 (RTV): 1.00 ± 0.00
  Tumor volume, Day 0: 52.61 ± 13.58** mm^3
[2]; Day 0
  T/C % (relative tumor proliferation rate): 0.00%
[2]; [5]
  Day 4 (TGI %): 57.58%
  Day 4 (RTV): 1.72 ± 0.37
  Tumor volume, Day 4: 113.01 ± 44.54 mm^3
[2]; Day 4
  T/C % (relative tumor proliferation rate): 91.44%
[2]; [6]
  Day 6 (TGI %): 57.20%
  Day 6 (RTV): 3.21 ± 0.87
  Tumor volume, Day 6: 180.94 ± 66.04* mm^3
[2]; Day 6
  T/C % (relative tumor proliferation rate): 106.22%
[2]; [7]
  Day 8 (TGI %): 58.10%
  Day 8 (RTV): 3.91 ± 1.20
  Tumor volume, Day 8: 220.12 ± 86.80* mm^3
[2]; Day 8
  T/C % (relative tumor proliferation rate): 104.00%
[2]; [8]
  Day 11 (TGI %): 48.19%
  Day 11 (RTV): 7.44 ± 23.2
  Tumor volume, Day 11: 416.66 ± 160.05 mm^3
[2]; Day 11
  T/C % (relative tumor proliferation rate): 125.12%
[2]; [9]
  Day 13 (TGI %): 54.18%
  Day 13 (RTV): 8.92 ± 2.48
  Tumor volume, Day 13: 531.90 ± 203.98* mm^3
[2]; Day 13
  T/C % (relative tumor proliferation rate): 103.73%
[2]; [10]
  Day 15 (TGI %): 46.45%
  Day 15 (RTV): 13.32 ± 4.00
  Tumor volume, Day 15: 756.53 ± 280.79 mm^3
[2]; Day 15
  T/C % (relative tumor proliferation rate): 127.18%
[2]; [11]
  Day 18 (TGI %): 45.71%
  Day 18 (RTV): 17.04 ± 5.01
  Tumor volume, Day 18: 1004.83 ± 385.58 mm^3
[2]; Day 18
  T/C % (relative tumor proliferation rate): 123.71%
[2]; [12]
  Day 20 (TGI %): 41.37%
  Day 20 (RTV): 21.58 ± 6.58
  Tumor volume, Day 20: 1242.64 ± 464.52 mm^3
[2]; Day 20
  T/C % (relative tumor proliferation rate): 136.12%
[2]; [13]
  Day 22 (RTV): 24.39 ± 7.52
  Tumor volume, Day 22: 1390.74 ± 510.70 mm^3
[2]; Day 22
  T/C % (relative tumor proliferation rate): 125.42%
[2]; day of maximum: G3 Day 8, G4 Day 11, G5 Day 11, G9 Day 4, G7 Day 8, single IP
  maximum value of TGI %: 58.10%
[3]
  Weight change rate, Day 0: 0.00 ± 0.00%
  Weight of mice, Day 0: 20.47 ± 0.42 g
  Weight change rate, Day 6: 4.36 ± 0.88%
  Weight of mice, Day 6: 21.35 ± 0.39 g
  Weight change rate, Day 8: 2.86 ± 2.28%
  Weight of mice, Day 8: 21.03 ± 0.52 g
  Weight change rate, Day 11: 4.67 ± 0.64%
  Weight of mice, Day 11: 21.43 ± 0.56 g
  Weight change rate, Day 13: 6.20 ± 0.88 %
  Weight of mice, Day 13: 21.75 ± 0.60 g
  Weight change rate, Day 15: 3.40 ± 1.34%
  Weight of mice, Day 15: 21.18 ± 0.66 g
  Weight change rate, Day 18: 2.66 ± 1.40%
  Weight of mice, Day 18: 21.03 ± 0.68 g
  Weight change rate, Day 20: 2.40 ± 1.27%
  Weight of mice, Day 20: 20.98 ± 0.68 g
  Weight change rate, Day 22: 3.33 ± 2.34%
  Weight of mice, Day 22: 21.17 ± 0.77 g
  Day 22 Mortality: 0%
[3]; Day 4
  Weight change rate, Day 4: 3.13 ± 1.03 %
  Weight of mice, Day 4: 21.10 ± 0.41 g
[3]; after single IP dose, compared with model control group
  clinical symptoms: no significant differences in clinical symptoms

## CCCCOC(=O)Nc1nc(=O)n([C@@H]2O[C@H](CO)[C@@H](O)C2(F)F)cc1Br [Compound G6, 5-Br-4-N-(n-butoxycarbonyl)-2′-deoxy-2′,2′-difluorocytidine]
[1]
  dose that could be tolerated (maximum tolerated dose, MTD): 200 mg/kg
[2]; [4]
  Day 0 (RTV): 1.00 ± 0.00
  Tumor volume, Day 0: 80.31 ± 24.42* mm^3
[2]; Day 0
  T/C % (relative tumor proliferation rate): 0.09%
[2]; [5]
  Day 4 (TGI %): 82.09%
  Day 4 (RTV): 1.42 ± 0.00
  Tumor volume, Day 4: 47.71 ± 0.00 mm^3
[2]; Day 4
  T/C % (relative tumor proliferation rate): 75.54%
[2]; [6]
  Day 6 (TGI %): 84.52%
  Day 6 (RTV): 1.95 ± 0.00
  Tumor volume, Day 6: 65.45 ± 0.00 mm^3
[2]; Day 6
  T/C % (relative tumor proliferation rate): 64.68%
[2]; [7]
  Day 8 (TGI %): 78.47%
  Day 8 (RTV): 3.38 ± 0.00
  Tumor volume, Day 8: 113.10 ± 0.00 mm^3
[2]; Day 8
  T/C % (relative tumor proliferation rate): 89.68%
[2]; [8]
  Day 11 (TGI %): 72.53%
  Day 11 (RTV): 6.59 ± 0.00
  Tumor volume, Day 11: 220.89 ± 0.00 mm^3
[2]; Day 11
  T/C % (relative tumor proliferation rate): 110.90%
[2]; [9]
  Day 13 (TGI %): 67.12%
  Day 13 (RTV): 11.39 ± 0.00
  Tumor volume, Day 13: 381.70 ± 0.00 mm^3
[2]; Day 13
  T/C % (relative tumor proliferation rate): 132.45%
[2]; [10]
  Day 15 (TGI %): 50.67%
  Day 15 (RTV): 20.80 ± 0.00
  Tumor volume, Day 15: 696.91 ± 0.00 mm^3
[2]; Day 15
  T/C % (relative tumor proliferation rate): 198.59%
[2]; [11]
  Day 18 (TGI %): 22.38%
  Day 18 (RTV): 42.88 ± 0.00
  Tumor volume, Day 18: 1436.76 ± 0.00 mm^3
[2]; Day 18
  T/C % (relative tumor proliferation rate): 311.29%
[2]; [12]
  Day 20 (TGI %): 16.62%
  Day 20 (RTV): 52.73 ± 0.00
  Tumor volume, Day 20: 1767.15 ± 0.00 mm^3
[2]; Day 20
  T/C % (relative tumor proliferation rate): 332.56%
[2]; [13]
  Day 22 (TGI %): 18.00%
  Day 22 (RTV): 64.00 ± 0.00
  Tumor volume, Day 22: 2144.66 ± 0.00 mm^3
[2]; Day 22
  T/C % (relative tumor proliferation rate): 329.10%
[3]
  Weight change rate, Day 0: 0.00 ± 0.00%
  Weight of mice, Day 0: 21.47 ± 0.65 g
  Weight change rate, Day 6: 0.52 ± 0.00%
  Weight of mice, Day 6: 19.40 ± 0.00 g
  Weight change rate, Day 8: 1.55 ± 0.00%
  Weight of mice, Day 8: 19.60 ± 0.00 g
  Weight change rate, Day 11: 6.22 ± 0.00%
  Weight of mice, Day 11: 20.50 ± 0.00 g
  Weight change rate, Day 13: 7.77 ± 0.00%
  Weight of mice, Day 13: 20.80 ± 0.00 g
  Weight change rate, Day 15: 8.29 ± 0.00%
  Weight of mice, Day 15: 20.90 ± 0.00 g
  Weight change rate, Day 18: 5.18 ± 0.00%
  Weight of mice, Day 18: 20.30 ± 0.00 g
  Weight change rate, Day 20: 4.66 ± 0.00%
  Weight of mice, Day 20: 20.20 ± 0.00 g
  Weight change rate, Day 22: 6.22 ± 0.00%
  Weight of mice, Day 22: 20.50 ± 0.00 g
  Day 22 Mortality: 83%
[3]; Day 4
  Weight change rate, Day 4: 0.00 ± 0.00%
  Weight of mice, Day 4: 19.30 ± 0.00 g
[3]; Day 4, G4 350 mg/kg, G8 350 mg/kg, G6 300 mg/kg, single IP, 6 mice a group
  animals died on Day 4 after administration: Five
